{"source": "patent US20090252814A1", "about": "“USE OF XENON FOR ORGAN PROTECTION” (priority 2005, published 2009)", "key": {"brain": {"test_system": "brain", "experiment": "Cortical infarction in neonatal rat brain, xenon and cooling", "format": "in vivo, Sprague Dawley rats", "set-up": "Total area of infraction: unit not given here", "protocol": "Sprague Dawley, 7 day neonatal rats were used. All procedures were approved by the Home Office.\nThe neonatal rats were exposed to: • (i) 20% xenon alone for 2 hours; • (ii) 35° C. hypothermia for 90 minutes; or • (iii) Hypothermia (35° C.) for 90 minutes before, 1 hour later, 20% xenon for 2 hours.\nThe gas was administered by gas inhalation.\nThe brains of said rats were then harvested at a set time after exposure to the xenon gas. A total of 11 rats were examined for each treatment group.\nThe brains were assessed for cortical infarction in the affected hemisphere.\nThe “intervention” rats under went an ischaemic injury to the brain."}, "VEGF": {"test_system": "VEGF", "experiment": "VEGF expression in adult mice brains (western blot)", "format": "in vivo, C57BL/6J mice", "conditions": "75% xenon and 25% oxygen 2 h, harvested 0-48 h after", "protocol": "Studies were performed on 8 to 12-wk-old C57BL/6J mice (Jackson Labs, Bar Harbor, Me.) that were fed a standard laboratory diet. All procedures were approved by the Home Office.\nThe mice were exposed to 75% xenon and 25% oxygen for two hours. The xenon gas was administered to the mice by inhalation. The brains of said adult mice were then harvested as described below between 0-48 hours after exposure to the xenon gas.\nThe tissues were homogenised and western blots of adult mice brain samples were carried out as described in Example 1.\nThe primary antibodies were anti-α-tubulin antibody, and monoclonal mouse anti-VEGF antibody."}, "HIF-1α gene": {"test_system": "HIF-1α gene", "experiment": "HIF-1α RNA expression in adult mice brains (RT-PCR)", "format": "in vivo, C57BL/6J mice", "conditions": "75% xenon and 25% oxygen 2 h, harvested 0-72 h after", "protocol": "Studies were performed on 8- to 12-wk-old C57BL/6J mice (Jackson Labs, Bar Harbor, Me.) that were fed a standard laboratory diet. All procedures were approved by the Home Office.\nThe mice were exposed to 75% xenon and 25% oxygen for two hours. The xenon gas was administered to the mice by inhalation. The brains of said adult mice were then harvested as described below between 0-72 hours after exposure to the xenon gas.\nTotal RNA was extracted as described in Example 4. In addition RT-PCR was carried out as described in Example 4. The primers used for the PCR amplifications were: […]"}}}
{"smiles": "[Xe]", "note": "[xenon]", "values": [{"measurement": "Total area of infraction", "setting": "brain; Control rats, 20% xenon alone column", "result": "88.3 (±4.1)"}, {"measurement": "Total area of infraction", "setting": "brain; Control rats, combination column", "result": "92.7 (±6.7)"}, {"measurement": "Total area of infraction", "setting": "brain; Intervention rats (ischaemic injury), 20% xenon alone for 2 hours", "result": "85.3 (±8.9)"}, {"measurement": "Total area of infraction", "setting": "brain; Intervention rats (ischaemic injury), combination: hypothermia 35° C. 90 min, 1 hour later 20% xenon 2 hours", "result": "74.1 (±7.8)"}, {"measurement": "interaction of xenon and cooling on area of infraction", "setting": "brain; hypothermia followed by xenon, administered asynchronously", "result": "synergy"}, {"measurement": "expression of VEGF", "setting": "VEGF", "result": "time-dependent increase"}, {"measurement": "transcription of the HIF-1α gene", "setting": "HIF-1α gene", "result": "does not modulate"}]}
